Data as given in ChEMBL document CHEMBL1152560, “Substituted 2-arylbenzothiazoles as kinase inhibitors: hit-to-lead optimization” (Bioorg Med Chem, 2009).

Legend:
[1] = molecular target: Calcium/calmodulin-dependent protein kinase type 1D (Homo sapiens) (UniProt Q8IU85); assay: Residual activity of CAMK1D at 0.1 uM by microplate scintillation counting
[2] = molecular target: Tyrosine-protein kinase SYK (Homo sapiens) (UniProt P43405); assay: Residual activity of SYK at 1 uM by microplate scintillation counting
[3] = molecular target: Tyrosine-protein kinase Lck (Homo sapiens) (UniProt P06239); assay: Residual activity of LCK at 10 uM by microplate scintillation counting
Tyrosine-protein kinase Lck (Homo sapiens), sequence (P06239 2-509 limits assumed): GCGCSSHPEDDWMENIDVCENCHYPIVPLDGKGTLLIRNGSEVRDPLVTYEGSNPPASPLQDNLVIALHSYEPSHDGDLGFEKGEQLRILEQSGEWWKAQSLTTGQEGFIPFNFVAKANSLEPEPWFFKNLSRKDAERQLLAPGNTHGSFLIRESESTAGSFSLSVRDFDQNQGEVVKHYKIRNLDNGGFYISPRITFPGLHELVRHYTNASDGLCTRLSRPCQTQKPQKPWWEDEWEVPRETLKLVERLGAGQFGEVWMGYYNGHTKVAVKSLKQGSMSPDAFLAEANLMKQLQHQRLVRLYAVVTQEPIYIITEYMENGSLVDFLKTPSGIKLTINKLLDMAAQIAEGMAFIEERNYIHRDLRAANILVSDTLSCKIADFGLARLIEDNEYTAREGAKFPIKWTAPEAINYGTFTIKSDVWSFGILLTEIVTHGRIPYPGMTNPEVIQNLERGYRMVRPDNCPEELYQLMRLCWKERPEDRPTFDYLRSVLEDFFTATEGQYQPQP

[4] = molecular target: T1, Tyrosine-protein kinase receptor TYRO3 (Homo sapiens) (UniProt Q06418); assay: Residual activity of TYRO3 at 10 uM by microplate scintillation counting
T1 sequence (whole entry): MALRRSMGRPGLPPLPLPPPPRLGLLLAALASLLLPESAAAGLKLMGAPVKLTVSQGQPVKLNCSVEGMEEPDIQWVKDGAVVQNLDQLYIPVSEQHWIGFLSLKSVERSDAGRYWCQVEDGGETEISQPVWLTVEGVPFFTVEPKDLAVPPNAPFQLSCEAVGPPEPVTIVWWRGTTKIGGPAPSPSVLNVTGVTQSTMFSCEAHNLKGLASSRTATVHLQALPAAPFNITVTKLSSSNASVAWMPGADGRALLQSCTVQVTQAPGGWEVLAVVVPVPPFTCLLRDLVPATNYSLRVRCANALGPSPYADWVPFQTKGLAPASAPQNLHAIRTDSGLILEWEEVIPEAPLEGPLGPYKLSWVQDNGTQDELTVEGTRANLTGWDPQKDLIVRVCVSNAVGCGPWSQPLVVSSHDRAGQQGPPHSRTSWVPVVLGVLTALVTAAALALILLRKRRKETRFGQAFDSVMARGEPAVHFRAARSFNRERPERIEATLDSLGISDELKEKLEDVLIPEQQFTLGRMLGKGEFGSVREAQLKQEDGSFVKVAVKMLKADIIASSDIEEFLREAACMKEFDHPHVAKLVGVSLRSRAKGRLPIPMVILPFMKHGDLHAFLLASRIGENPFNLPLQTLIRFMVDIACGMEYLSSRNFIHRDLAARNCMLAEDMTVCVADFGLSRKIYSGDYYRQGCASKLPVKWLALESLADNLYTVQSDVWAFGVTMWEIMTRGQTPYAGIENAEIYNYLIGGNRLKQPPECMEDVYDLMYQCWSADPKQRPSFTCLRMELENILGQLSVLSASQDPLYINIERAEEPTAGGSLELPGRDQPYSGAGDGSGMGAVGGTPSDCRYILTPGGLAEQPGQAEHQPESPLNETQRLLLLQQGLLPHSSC

[5] = molecular target: RAC-gamma serine/threonine-protein kinase (Homo sapiens) (UniProt Q9Y243); assay: Residual activity of AKT3 at 1 uM by microplate scintillation counting
RAC-gamma serine/threonine-protein kinase (Homo sapiens), sequence (Q9Y243 whole entry): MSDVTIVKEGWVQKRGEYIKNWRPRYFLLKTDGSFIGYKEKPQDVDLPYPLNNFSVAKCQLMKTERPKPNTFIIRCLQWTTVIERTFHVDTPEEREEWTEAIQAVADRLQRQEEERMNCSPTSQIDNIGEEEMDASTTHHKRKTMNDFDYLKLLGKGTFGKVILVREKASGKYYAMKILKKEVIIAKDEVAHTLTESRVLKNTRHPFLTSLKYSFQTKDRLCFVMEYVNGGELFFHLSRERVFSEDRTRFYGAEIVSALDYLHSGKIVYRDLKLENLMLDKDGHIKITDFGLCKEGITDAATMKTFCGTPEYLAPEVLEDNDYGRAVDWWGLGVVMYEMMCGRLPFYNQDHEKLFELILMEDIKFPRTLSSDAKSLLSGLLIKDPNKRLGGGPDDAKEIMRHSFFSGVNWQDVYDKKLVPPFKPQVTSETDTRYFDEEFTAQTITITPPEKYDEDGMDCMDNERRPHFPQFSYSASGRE

[6] = molecular target: T2, Serine/threonine-protein kinase Nek1 (Homo sapiens) (UniProt Q96PY6); assay: Residual activity of NEK1 at 10 uM by microplate scintillation counting
T2 sequence (whole entry): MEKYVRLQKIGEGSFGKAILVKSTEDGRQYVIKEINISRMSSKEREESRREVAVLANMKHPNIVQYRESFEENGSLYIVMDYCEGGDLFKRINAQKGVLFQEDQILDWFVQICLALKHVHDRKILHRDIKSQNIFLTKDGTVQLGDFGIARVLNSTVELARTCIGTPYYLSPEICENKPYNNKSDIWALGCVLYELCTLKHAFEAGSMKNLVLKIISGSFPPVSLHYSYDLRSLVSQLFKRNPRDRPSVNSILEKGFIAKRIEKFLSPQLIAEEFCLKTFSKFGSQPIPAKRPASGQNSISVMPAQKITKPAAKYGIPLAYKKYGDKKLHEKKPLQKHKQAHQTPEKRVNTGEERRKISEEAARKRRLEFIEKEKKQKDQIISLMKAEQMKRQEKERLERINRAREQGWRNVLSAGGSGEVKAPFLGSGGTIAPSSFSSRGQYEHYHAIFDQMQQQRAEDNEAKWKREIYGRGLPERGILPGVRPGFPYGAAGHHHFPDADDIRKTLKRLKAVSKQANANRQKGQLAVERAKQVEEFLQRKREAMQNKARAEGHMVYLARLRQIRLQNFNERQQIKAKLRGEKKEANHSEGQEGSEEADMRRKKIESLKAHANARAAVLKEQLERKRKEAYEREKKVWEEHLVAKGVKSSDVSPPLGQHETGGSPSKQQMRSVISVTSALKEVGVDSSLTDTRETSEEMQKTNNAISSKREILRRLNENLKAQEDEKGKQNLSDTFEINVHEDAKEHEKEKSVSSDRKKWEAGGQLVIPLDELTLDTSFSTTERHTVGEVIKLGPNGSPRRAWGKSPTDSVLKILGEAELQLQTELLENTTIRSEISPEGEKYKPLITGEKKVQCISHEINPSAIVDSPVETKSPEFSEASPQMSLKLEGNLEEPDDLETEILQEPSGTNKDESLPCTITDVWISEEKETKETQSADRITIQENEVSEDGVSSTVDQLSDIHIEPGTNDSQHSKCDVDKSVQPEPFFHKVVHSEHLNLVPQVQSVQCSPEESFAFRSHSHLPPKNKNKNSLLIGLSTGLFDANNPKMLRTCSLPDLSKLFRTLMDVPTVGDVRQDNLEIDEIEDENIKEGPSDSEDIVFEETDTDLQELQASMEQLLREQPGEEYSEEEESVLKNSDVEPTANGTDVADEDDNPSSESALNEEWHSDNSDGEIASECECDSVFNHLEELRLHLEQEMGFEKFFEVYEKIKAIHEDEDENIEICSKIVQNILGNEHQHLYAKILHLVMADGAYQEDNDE

[7] = molecular target: Death-associated protein kinase 1 (Homo sapiens) (UniProt P53355); assay: Residual activity of DAPK1 at 0.1 uM by microplate scintillation counting
Death-associated protein kinase 1 (Homo sapiens), sequence (P53355 whole entry, looked up): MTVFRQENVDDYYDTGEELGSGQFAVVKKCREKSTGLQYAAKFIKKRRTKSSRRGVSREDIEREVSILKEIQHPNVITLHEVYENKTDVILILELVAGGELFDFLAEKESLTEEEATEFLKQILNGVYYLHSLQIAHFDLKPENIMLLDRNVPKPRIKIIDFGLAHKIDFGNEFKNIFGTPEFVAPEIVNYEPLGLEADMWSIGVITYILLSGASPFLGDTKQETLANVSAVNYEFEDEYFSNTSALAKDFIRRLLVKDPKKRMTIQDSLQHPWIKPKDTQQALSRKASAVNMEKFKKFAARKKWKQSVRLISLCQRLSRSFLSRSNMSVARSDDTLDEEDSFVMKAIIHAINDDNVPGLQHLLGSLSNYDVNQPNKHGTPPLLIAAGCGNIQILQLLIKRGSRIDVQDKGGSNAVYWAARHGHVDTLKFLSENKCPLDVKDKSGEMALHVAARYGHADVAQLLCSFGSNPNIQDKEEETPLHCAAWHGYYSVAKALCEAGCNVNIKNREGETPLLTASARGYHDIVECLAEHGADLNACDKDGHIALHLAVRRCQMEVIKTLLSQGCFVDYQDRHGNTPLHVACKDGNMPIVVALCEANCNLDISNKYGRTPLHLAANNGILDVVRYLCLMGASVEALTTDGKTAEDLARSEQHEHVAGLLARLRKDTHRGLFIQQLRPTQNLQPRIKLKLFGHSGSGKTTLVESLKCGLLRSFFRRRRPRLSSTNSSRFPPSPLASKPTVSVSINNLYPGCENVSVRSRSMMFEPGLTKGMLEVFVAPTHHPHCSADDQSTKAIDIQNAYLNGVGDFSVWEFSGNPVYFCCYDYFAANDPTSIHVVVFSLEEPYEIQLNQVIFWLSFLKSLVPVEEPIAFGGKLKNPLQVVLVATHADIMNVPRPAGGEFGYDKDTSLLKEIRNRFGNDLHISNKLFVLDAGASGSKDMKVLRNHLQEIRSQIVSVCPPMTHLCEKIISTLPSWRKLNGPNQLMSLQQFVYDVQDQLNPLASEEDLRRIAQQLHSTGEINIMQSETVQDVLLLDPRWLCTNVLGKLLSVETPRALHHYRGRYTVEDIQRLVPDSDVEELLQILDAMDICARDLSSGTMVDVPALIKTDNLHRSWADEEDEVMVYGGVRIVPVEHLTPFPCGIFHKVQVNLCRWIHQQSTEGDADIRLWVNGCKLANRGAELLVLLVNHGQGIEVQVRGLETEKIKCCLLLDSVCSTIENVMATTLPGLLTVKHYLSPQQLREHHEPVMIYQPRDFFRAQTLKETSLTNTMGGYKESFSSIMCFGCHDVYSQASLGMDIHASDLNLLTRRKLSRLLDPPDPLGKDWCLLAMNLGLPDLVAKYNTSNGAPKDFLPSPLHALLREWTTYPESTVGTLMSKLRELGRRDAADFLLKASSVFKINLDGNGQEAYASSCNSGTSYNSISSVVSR

Calcium/calmodulin-dependent protein kinase type 1D (Homo sapiens), sequence (Q8IU85 whole entry, looked up): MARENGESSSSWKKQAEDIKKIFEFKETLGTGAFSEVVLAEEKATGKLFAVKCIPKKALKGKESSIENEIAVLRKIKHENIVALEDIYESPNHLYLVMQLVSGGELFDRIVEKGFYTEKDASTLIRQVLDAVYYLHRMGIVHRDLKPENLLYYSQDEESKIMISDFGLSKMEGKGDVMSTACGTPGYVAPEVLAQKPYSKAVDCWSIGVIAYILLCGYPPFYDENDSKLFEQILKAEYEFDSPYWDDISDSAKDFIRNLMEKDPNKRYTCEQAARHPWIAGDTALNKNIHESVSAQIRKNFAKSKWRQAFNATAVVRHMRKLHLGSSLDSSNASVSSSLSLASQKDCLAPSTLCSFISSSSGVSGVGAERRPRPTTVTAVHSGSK

residual activity [1]	residual activity [2]	residual activity [3]	residual activity [4]	residual activity [5]	residual activity [6]	SMILES	residual activity [7]
101%	97%	6%	120%	98%	93%	COc1cc2c(Oc3ccc(-c4nc5ccccc5s4)cc3)ncnc2cc1OCCCN1CCCC1	86%
104%	102%	2%	17%	89%	101%	COc1cc2c(Oc3ccc(-c4nc5ccccc5s4)cc3F)ncnc2cc1OCCCN1CCN(C)CC1	80%
88%	95%	4%	84%	88%	104%	COc1cc2c(Oc3ccc(-c4nc5ccccc5s4)cc3)ncnc2cc1OCCCN1CCN(C)CC1	73%
